We go through one molecule from patent US8282916B2, “Tumor therapy with replication competent sindbis viral vectors” (New York University, priority 2008, dated 2012).

Entries after “also recorded” stand apart in the source; their conditions may differ.

This assay relates to ES-2/Fluc ovarian cancer cells. Nature of the assay: ES-2/Fluc ovarian cancer model in SCID mice: whole body bioluminescence after daily i.p. RD-Sindbis/tk and GCV. It counts as in vivo. The text has this:
In the example below, SCID mice were intraperitoneally implanted with ES2 human ovarian cancer cells. In order to track and monitor disease progression, the ES2 cells were genetically engineered to express a firefly luciferase gene for bioluminescent imaging. Therefore, the bioluminescent signal intensity is proportional to the tumor load in these animals (FIG. 3B). Tumor-bearing mice were either mock treated or received daily treatments with a conventional RD-Sindbis/HSVtk vector.
An ES-2/Fluc ovarian cancer model was used to test if the HSVtk suicide gene enhanced the therapeutic effects of Sindbis vectors. […] SCID mice were inoculated with ES-2/Fluc on day 0. Daily GDEPT treatments involving i.p. injections of RD-Sindbis/tk and GCV (25 mg/Kg of body weight) were started on day 3. The Sindbis/tk −GCV group (n=5) received Sindbis/tk treatments but no GCV. The Sindbis/tk +GCV group (n=5) received both Sindbis/tk and GCV treatments. The Control group (n=5) was neither treated with Sindbis/tk nor GCV. The Control +GCV group (n=5) received no Sindbis/tk but was treated with GCV. Disease progression was monitored and the whole body photon counts were determined using the IVIS® system on days 1, 3, 6, 8, 12 and 14.

As for `Nc1nc(O)c2ncn(COC(CO)CO)c2n1` [GCV, ganciclovir], the “effect of prodrug on tumor growth / tumor killing together with vector” value (GCV 25 mg/Kg daily i.p. together with daily i.p. RD-Sindbis/HSVtk from day 3) was “significantly improved anti-tumor efficacy; also recorded: dramatically enhanced the Sindbis HSVtk vector treatments and suppressed tumor growth; also recorded: enhanced the killing of Sindbis/tk-infected ES-2/Fluc cells in vivo”. For the same molecule, the “therapeutic effect on tumor loading” value (GCV 25 mg/Kg daily i.p. without HSVtk expression (no Sindbis/tk)) is listed as “no therapeutic effect”.
